Ends that are not written are not given here. Peptide text beside a SMILES is read from it.

The target of the first assay is ACE-I enzyme (Homo sapiens, UniProt P12821). Description: ACE-I activity in vitro using FAPGG as substrate. In kind it is biochemical. The conditions noted are these: peptides purified by reverse-phase HPLC from 10 kDa UF permeate of Example 1 hydrolysate. The protocol: ACE-I activity (in vitro) in the dried product was determined using FAPGG as a substrate (Product 305–10 ex Sigma Chemical Corporation, St Louis, Mo., USA) according of the method of D W Cushman & H S Cheung (1971). ACE-I activities are expressed as the amount of material (mg/L) needed to reduce the activity of the ACE-I enzyme by 50%.
Chain of ACE-I enzyme (P12821 30-1306): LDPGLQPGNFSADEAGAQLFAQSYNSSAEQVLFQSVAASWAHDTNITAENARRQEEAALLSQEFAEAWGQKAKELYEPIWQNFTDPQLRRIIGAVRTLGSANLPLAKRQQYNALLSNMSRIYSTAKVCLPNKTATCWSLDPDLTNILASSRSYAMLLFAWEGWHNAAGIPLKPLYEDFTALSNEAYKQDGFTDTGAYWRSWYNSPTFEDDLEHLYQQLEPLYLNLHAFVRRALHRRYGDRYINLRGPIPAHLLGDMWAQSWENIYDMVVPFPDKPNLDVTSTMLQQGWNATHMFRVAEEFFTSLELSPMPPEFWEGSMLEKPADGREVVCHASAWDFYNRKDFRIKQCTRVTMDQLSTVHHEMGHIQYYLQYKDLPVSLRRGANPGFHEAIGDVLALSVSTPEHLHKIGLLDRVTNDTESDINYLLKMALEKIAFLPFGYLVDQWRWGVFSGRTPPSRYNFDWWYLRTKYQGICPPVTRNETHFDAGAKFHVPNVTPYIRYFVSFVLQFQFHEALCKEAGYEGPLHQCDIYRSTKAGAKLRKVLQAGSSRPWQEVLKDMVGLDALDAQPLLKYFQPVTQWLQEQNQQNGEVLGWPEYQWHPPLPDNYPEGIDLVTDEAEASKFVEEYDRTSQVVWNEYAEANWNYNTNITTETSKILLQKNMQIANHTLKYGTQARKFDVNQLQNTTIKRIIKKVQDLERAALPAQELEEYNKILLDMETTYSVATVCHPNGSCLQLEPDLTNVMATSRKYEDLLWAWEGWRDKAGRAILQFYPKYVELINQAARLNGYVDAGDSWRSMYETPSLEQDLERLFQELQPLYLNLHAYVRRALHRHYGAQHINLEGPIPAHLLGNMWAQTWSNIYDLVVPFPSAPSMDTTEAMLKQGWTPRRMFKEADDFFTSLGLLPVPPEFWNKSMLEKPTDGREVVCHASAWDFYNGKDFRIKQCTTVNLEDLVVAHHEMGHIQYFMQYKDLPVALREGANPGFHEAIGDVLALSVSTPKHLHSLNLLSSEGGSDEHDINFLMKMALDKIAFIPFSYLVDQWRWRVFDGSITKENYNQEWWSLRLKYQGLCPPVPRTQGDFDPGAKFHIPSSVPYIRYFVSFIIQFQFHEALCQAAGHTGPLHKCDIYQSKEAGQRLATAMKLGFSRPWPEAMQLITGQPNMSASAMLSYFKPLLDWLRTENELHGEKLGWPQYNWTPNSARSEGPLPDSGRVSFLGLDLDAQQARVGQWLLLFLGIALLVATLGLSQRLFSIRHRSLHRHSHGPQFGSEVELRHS
The compound LKGYGGVSLPEW [Peptide 7] showed an IC50 of 5.36 µM.

For VSLPEW [Peptide 5, VSLPEW], the IC50 is 11 µM.

In turn, ALPMH [Peptide 3, ALPMH] had an IC50 of 40.5 µM.

The compound `C[C@H](NC(=O)[C@@H](N)CO)C(=O)N1CCC[C@H]1C(=O)O` [Peptide 1, SAP] (H-Ser-Ala-Pro-OH; N-terminus and C-terminus assumed) gave an IC50 of 80.5 µM.

For the compound `CSCC[C@H](N)C(=O)N[C@@H](CCCCN)C(=O)NCC(=O)O` [Peptide 2, MKG] (H-Met-Lys-Gly-OH; N-terminus and C-terminus assumed), the IC50 is 68.8 µM.

Turning to LIVTQ [Peptide 4, LIVTQ], the IC50 was 33.2 µM.

For another assay, the system named is Spontaneously hypertensive rats (SHRs). Put plainly: Acute short term effect on systolic blood pressure (tail cuff). In kind it is in vivo, rat. The conditions noted are these: 165 mg/kg body weight, oral in jelly, p=0.0021 after 4 hours, p<0.0001 after 8 hours. The protocol:
Blood pressure was measured using a tail cuff monitor and a purpose designed apparatus for measuring the blood pressure of small animals [IITC Inc, 239 Victory Blvd., Woodland Hills, Calif. 91367, USA]. Each time point was the average of 3–5 readings taken within approximately 5–10 minutes.
Spontaneously hypertensive rats (SHRs) were sourced from the Animal Resource Centre, Western Australia.
The test substances were given to each rat on a per kg body weight basis unless otherwise stated. The individual dose for each animal was incorporated into a flavoured jelly, which was readily consumed by the animals.
The three samples evaluated for short tern blood pressure response were a mildly hydrolysed whey protein concentrate (FIG. 2), a mildly hydrolysed whey protein isolate (see FIG. 3) and a synthesised peptide from. Table 1, namely MKG (SEQ ID NO: 2) (see FIG. 4). The WPC was prepared according to the methodology set out in example 1 of WO 99/65326.
Acute or short term effects of agents were determined by treating adult SHRs with the agent and then studying their blood pressure responses over the following hours. The study detects if an agent lowers blood pressure that is already elevated.
Consider `CSCC[C@H](N)C(=O)N[C@@H](CCCCN)C(=O)NCC(=O)O` [Peptide 2, MKG] (H-Met-Lys-Gly-OH; N-terminus and C-terminus assumed), for which the “Reduction in systolic blood pressure compared to control rats” value is reported as “much greater reduction in blood pressure”.
